Test results reported in article PMC10038035 (Journal of Enzyme Inhibition and Medicinal Chemistry, 2023).
Like-named read-outs stand apart in the source and are kept apart here.

Legend:
[1] = molecular target: T1, prion protein (recombinant mouse PrP, recPrP) (Mus musculus, UniProt P04925); experiment: biochemical
T1 construct: gene Prnp

[2] = molecular target: T1, prion protein (recombinant mouse PrP, recPrP); experiment: biochemical; remark: listed apart in the source
[3] = molecular target: T1, prion protein (recombinant mouse PrP, recPrP); assay type: biochemical

T1 sequence (P04925 23-231 limits assumed): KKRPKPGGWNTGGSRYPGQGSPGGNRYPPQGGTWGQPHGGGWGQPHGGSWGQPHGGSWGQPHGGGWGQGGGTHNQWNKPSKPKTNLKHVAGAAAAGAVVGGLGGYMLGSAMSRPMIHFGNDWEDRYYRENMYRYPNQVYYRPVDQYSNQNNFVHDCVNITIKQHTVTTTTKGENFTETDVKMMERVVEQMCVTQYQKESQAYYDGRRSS

Work on `O=C(NNC(=S)Nc1ccc(Cl)cc1)c1cc2cccc(O)c2cc1O` [7x] yielded an EC50 [1] of 4.6 µM.
Molecule `CCOc1cc(C(=O)NNC(=S)Nc2ccc(Cl)cc2)c(O)c2ccccc12` [7y] has an EC50 [2] of 5 µM.
For `Cc1cc(Nc2ccc(NC(=O)c3ccc(Nc4ccnc5ccccc45)cc3)cc2)nc(N)n1` [SGI-1027], the “PrP aggregate formation assay (ThT fluorescence) with purified recPrP, single co” value [3] was “The anti-PrP aggregation activity of 7x and 7y was further compared to that of SGI-1027 (a positive control)”.
